According to article PMC9674830, “A glutamine-based single α-helix scaffold to target globular proteins” (Nature Communications, 2022):

Target: T1, RAP74-CTD (Homo sapiens, UniProt P35269)
T1 construct: spanning residues 450-517; His6-MBP (with TEV site) (N, cleaved yes); made in house; host or cells: E. coli Rosetta (DE3)pLysS
T1 sequence (P35269 450-517): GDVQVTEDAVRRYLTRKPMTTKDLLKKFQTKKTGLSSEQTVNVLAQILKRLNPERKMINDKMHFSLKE
Test: NMR chemical shift perturbation titration of peptides into 15N RAP74-CTD (KD)
Assay type: binding
Settings: 15 molar equivalents of peptide, NMR
Experimental: Recombinant samples with ^15N isotope enrichment of the C-terminal domain of subunit 1 of the general transcription regulator TFIIF (RAP74-CTD), spanning residues 450-517, were obtained as described previously. A codon-optimized synthetic gene cloned in a pDONR221 vector was obtained from GeneArt (Thermo Fisher Scientific, Waltham, MA, USA) and subcloned into a pDEST-His6MBP vector obtained from Addgene. Rosetta (DE3)pLysS competent cells (Novagen, Merck KGaA, Darmstadt, Germany) were grown in MOPS medium with ^15NH4Cl as the only nitrogen source (310 K, induction at OD600 = 0.7, 1 mM IPTG, harvesting 3 h after induction). Soluble fractions of cell lysates from sonication in lysis buffer (50 mM Tris-HCl, 1 M NaCl, 10 mM imidazole, pH 8.0) were purified by IMAC, and fractions containing the His6MBP-TEV-RAP74-CTD fusion were dialyzed at 277 K overnight against cleavage buffer (50 mM Tris-HCl, 200 mM NaCl, 0.5 mM EDTA, pH 8.0) in the presence of TEV protease (50 μg/mL). A second IMAC step was performed and the flow-through containing the RAP-CTD was loaded onto a HiTrap SP HP cation exchange column followed by a size exclusion chromatography step on a Superdex 75 GL 10/300 column equilibrated with NMR buffer (20 mM sodium phosphate, 0.1% trifluoroacetic acid, pH 7.4), both mounted in an Äkta Purifier System (GE Healthcare, Chicago, IL, USA). The sample was concentrated to 100 μM using an Amicon Ultra 15 mL centrifugal filter (Merck KGaA, Darmstadt, Germany).
Before the experiment, both the protein and the peptide were dialyzed (277 K, two dialysis steps) in the same preparation of NMR buffer (20 mM sodium phosphate, 0.1% trifluoroacetic acid, pH 7.4), using a Pur-A-Lyzer (Sigma-Aldrich, Burlington, MA, USA) and a Micro Float-A-Lyzer (Spectrum Laboratories, San Francisco, CA, USA) respectively. The chemical shift assignment of RAP74-CTD was reported previously (BMRB code 27288). Averaged ^1H and ^15N chemical shift perturbations (CSPs) were calculated as:2 ΔδAV=(Δδ1H)^2+1/5Δδ15N^2
Dissociation constants, KD, and averaged CSP amplitude, Δδmax, for δ, δstpl, γ and γstpl peptide binding to RAP74-CTD were obtained by a global fitting (nonlinear regression) of the 10% peaks with the largest averaged CSPs to the following single-site binding model (1:1 stoichiometry):3 Δδ=Δδmax([Protein]+[Peptide]+KD)−([Protein]+[Peptide]+KD)^2−4[Protein][Peptide]/2[Protein]

KKPGASLAALQALQALQAAQAAKKY [(P3-7)2, Gln-based single α-helix scaffold peptide]
CSPs (ppm) induced by peptide on 15N RAP74-CTD, residue 452 (RAP74-CTD residue 452): 0.00133 ppm
CSPs (ppm) induced by peptide on 15N RAP74-CTD, residue 453 (RAP74-CTD residue 453): 0.00174 ppm
CSPs (ppm) induced by peptide on 15N RAP74-CTD, residue 454 (RAP74-CTD residue 454): 0.00213 ppm
CSPs (ppm) induced by peptide on 15N RAP74-CTD, residue 455 (RAP74-CTD residue 455): 0.00368 ppm
CSPs (ppm) induced by peptide on 15N RAP74-CTD, residue 457 (RAP74-CTD residue 457): 0.000762 ppm
CSPs (ppm) induced by peptide on 15N RAP74-CTD, residue 458 (RAP74-CTD residue 458): 0.00141 ppm
CSPs (ppm) induced by peptide on 15N RAP74-CTD, residue 459 (RAP74-CTD residue 459): 0.00114 ppm
CSPs (ppm) induced by peptide on 15N RAP74-CTD, residue 460 (RAP74-CTD residue 460): 0.00136 ppm
CSPs (ppm) induced by peptide on 15N RAP74-CTD, residue 461 (RAP74-CTD residue 461): 0.00237 ppm
CSPs (ppm) induced by peptide on 15N RAP74-CTD, residue 462 (RAP74-CTD residue 462): 0.00141 ppm
CSPs (ppm) induced by peptide on 15N RAP74-CTD, residue 463 (RAP74-CTD residue 463): 0.00149 ppm
CSPs (ppm) induced by peptide on 15N RAP74-CTD, residue 464 (RAP74-CTD residue 464): 0.002 ppm
CSPs (ppm) induced by peptide on 15N RAP74-CTD, residue 465 (RAP74-CTD residue 465): 0.000665 ppm
CSPs (ppm) induced by peptide on 15N RAP74-CTD, residue 466 (RAP74-CTD residue 466): 0.00337 ppm
CSPs (ppm) induced by peptide on 15N RAP74-CTD, residue 468 (RAP74-CTD residue 468): 0.000677 ppm
CSPs (ppm) induced by peptide on 15N RAP74-CTD, residue 469 (RAP74-CTD residue 469): 0.00178 ppm
CSPs (ppm) induced by peptide on 15N RAP74-CTD, residue 470 (RAP74-CTD residue 470): 0.00475 ppm
CSPs (ppm) induced by peptide on 15N RAP74-CTD, residue 471 (RAP74-CTD residue 471): 0.006 ppm
CSPs (ppm) induced by peptide on 15N RAP74-CTD, residue 472 (RAP74-CTD residue 472): 0.003 ppm
CSPs (ppm) induced by peptide on 15N RAP74-CTD, residue 473 (RAP74-CTD residue 473): 0.00131 ppm
CSPs (ppm) induced by peptide on 15N RAP74-CTD, residue 474 (RAP74-CTD residue 474): 0.000952 ppm
CSPs (ppm) induced by peptide on 15N RAP74-CTD, residue 475 (RAP74-CTD residue 475): 0.0011 ppm
CSPs (ppm) induced by peptide on 15N RAP74-CTD, residue 476 (RAP74-CTD residue 476): 0.00225 ppm
CSPs (ppm) induced by peptide on 15N RAP74-CTD, residue 477 (RAP74-CTD residue 477): 0.0034 ppm
CSPs (ppm) induced by peptide on 15N RAP74-CTD, residue 478 (RAP74-CTD residue 478): 0.00316 ppm
CSPs (ppm) induced by peptide on 15N RAP74-CTD, residue 484 (RAP74-CTD residue 484): 0.00185 ppm
CSPs (ppm) induced by peptide on 15N RAP74-CTD, residue 487 (RAP74-CTD residue 487): 0.009 ppm
CSPs (ppm) induced by peptide on 15N RAP74-CTD, residue 488 (RAP74-CTD residue 488): 0.000614 ppm
CSPs (ppm) induced by peptide on 15N RAP74-CTD, residue 489 (RAP74-CTD residue 489): 0.00261 ppm
CSPs (ppm) induced by peptide on 15N RAP74-CTD, residue 490 (RAP74-CTD residue 490): 0.002 ppm
CSPs (ppm) induced by peptide on 15N RAP74-CTD, residue 491 (RAP74-CTD residue 491): 0.002 ppm
CSPs (ppm) induced by peptide on 15N RAP74-CTD, residue 492 (RAP74-CTD residue 492): 0.003 ppm
CSPs (ppm) induced by peptide on 15N RAP74-CTD, residue 493 (RAP74-CTD residue 493): 0.00151 ppm
CSPs (ppm) induced by peptide on 15N RAP74-CTD, residue 494 (RAP74-CTD residue 494): 0.00469 ppm
CSPs (ppm) induced by peptide on 15N RAP74-CTD, residue 495 (RAP74-CTD residue 495): 0.00146 ppm
CSPs (ppm) induced by peptide on 15N RAP74-CTD, residue 496 (RAP74-CTD residue 496): 0.00171 ppm
CSPs (ppm) induced by peptide on 15N RAP74-CTD, residue 497 (RAP74-CTD residue 497): 0.00134 ppm
CSPs (ppm) induced by peptide on 15N RAP74-CTD, residue 498 (RAP74-CTD residue 498): 0.00172 ppm
CSPs (ppm) induced by peptide on 15N RAP74-CTD, residue 499 (RAP74-CTD residue 499): 0.000579 ppm
CSPs (ppm) induced by peptide on 15N RAP74-CTD, residue 500 (RAP74-CTD residue 500): 0.00095 ppm
CSPs (ppm) induced by peptide on 15N RAP74-CTD, residue 501 (RAP74-CTD residue 501): 0.00151 ppm
CSPs (ppm) induced by peptide on 15N RAP74-CTD, residue 503 (RAP74-CTD residue 503): 0.000881 ppm
CSPs (ppm) induced by peptide on 15N RAP74-CTD, residue 504 (RAP74-CTD residue 504): 0.002 ppm
CSPs (ppm) induced by peptide on 15N RAP74-CTD, residue 505 (RAP74-CTD residue 505): 0.002 ppm
CSPs (ppm) induced by peptide on 15N RAP74-CTD, residue 506 (RAP74-CTD residue 506): 0.008 ppm
CSPs (ppm) induced by peptide on 15N RAP74-CTD, residue 507 (RAP74-CTD residue 507): 0.004 ppm
CSPs (ppm) induced by peptide on 15N RAP74-CTD, residue 509 (RAP74-CTD residue 509): 0.00319 ppm
CSPs (ppm) induced by peptide on 15N RAP74-CTD, residue 510 (RAP74-CTD residue 510): 0.000691 ppm
CSPs (ppm) induced by peptide on 15N RAP74-CTD, residue 512 (RAP74-CTD residue 512): 0.00469 ppm
CSPs (ppm) induced by peptide on 15N RAP74-CTD, residue 513 (RAP74-CTD residue 513): 0.00335 ppm
CSPs (ppm) induced by peptide on 15N RAP74-CTD, residue 514 (RAP74-CTD residue 514): 0.001 ppm
CSPs (ppm) induced by peptide on 15N RAP74-CTD, residue 515 (RAP74-CTD residue 515): 0.00145 ppm
CSPs (ppm) induced by peptide on 15N RAP74-CTD, residue 516 (RAP74-CTD residue 516): 0.00117 ppm
CSPs (ppm) induced by peptide on 15N RAP74-CTD, residue 517 (RAP74-CTD residue 517): 0.000251 ppm
